Assay results taken from publication PMC11602988 (The Journal of Biological Chemistry, 2024).
Where a chain is given by its changes, count along the chain named. “And” between values parts separate entries of the source, which are not always exact repeats. Identical values can stand only once. Like-named read-outs stand apart in the source and are kept apart here.

Key:
[1] = target: T1, OCT1 Phe244Ala variant (Homo sapiens, UniProt O15245, F244A); assay: Concentration-dependent uptake kinetics, HEK293 cells overexpressing OCT1 Phe244Ala; details: for Clint: OCT1 Phe244Ala, ratio of vmax over Km; for Maximum transport capacity (vmax), Phe244Ala compared to WT / Km, Phe244Ala compared to WT: uptake kinetics, in words;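 for all read-outs here: cells exposed to rising substrate concentrations in buffer, intracellular drug measured by HPLC-tandem mass spectrometry, quantified against a standard curve, uptake referenced to empty vector-transfected HEK293 controls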
T1 sequence (O15245 1-554 F244A): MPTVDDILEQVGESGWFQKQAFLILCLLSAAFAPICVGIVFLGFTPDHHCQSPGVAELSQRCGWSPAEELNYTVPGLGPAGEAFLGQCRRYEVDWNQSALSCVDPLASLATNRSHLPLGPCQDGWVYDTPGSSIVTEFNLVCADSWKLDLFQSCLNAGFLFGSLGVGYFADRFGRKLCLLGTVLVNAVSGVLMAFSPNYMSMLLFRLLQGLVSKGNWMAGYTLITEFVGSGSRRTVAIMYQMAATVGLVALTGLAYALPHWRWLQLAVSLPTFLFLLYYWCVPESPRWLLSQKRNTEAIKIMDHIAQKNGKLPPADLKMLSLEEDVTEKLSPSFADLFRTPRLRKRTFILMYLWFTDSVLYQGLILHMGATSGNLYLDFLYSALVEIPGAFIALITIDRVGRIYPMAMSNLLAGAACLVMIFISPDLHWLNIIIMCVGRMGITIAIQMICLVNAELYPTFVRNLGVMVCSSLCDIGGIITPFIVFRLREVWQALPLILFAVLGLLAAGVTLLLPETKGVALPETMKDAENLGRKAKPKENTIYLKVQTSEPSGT

[2] = target: T2, OCT1 WT (Homo sapiens, UniProt O15245); assay: Concentration-dependent uptake kinetics, HEK293 cells overexpressing OCT1 WT; details: for Clint: OCT1 WT, ratio of vmax over Km
T2 sequence (O15245 1-554): T1 sequence (O15245 1-554 F244A) with A244F

[3] = target: T1, OCT1 Phe244Ala variant; assay: Uptake screening (transport ratio over empty vector), HEK293 cells overexpressing OCT1 Phe244Ala variant; format: cell-based; set-up: expressed in transfected cells;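 note: stably transfected HEK293 cells, intracellular substrate quantified by HPLC-tandem mass spectrometry in cell lysates, uptake in HBSS+ buffer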
[4] = target: T2, OCT1 WT; assay: Uptake screening (transport ratio over empty vector), HEK293 cells overexpressing OCT1 WT; format: cell-based; set-up: expressed in transfected cells;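 note: intracellular substrate levels quantified by HPLC–tandem mass spectrometry after uptake in HBSS+ buffer at 37 °C, stable Flp-In HEK293 lines, fold change versus empty vector–transfected cells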
[5] = target: T1, OCT1 Phe244Ala variant; assay: Inhibition of (R,S)-ethambutol uptake, HEK293 cells overexpressing OCT1 Phe244Ala; details: 20 μM inhibitor, 2 μM (R,S)-ethambutol, 5 min
[6] = uptake ratio over empty vector, HEK293 cells overexpressing OCT1 WT
[7] = Phe244Ala uptake relative to OCT1 WT
[8] = uptake ratio over empty vector, HEK293 cells overexpressing OCT1 Phe244Ala
[9] = Phe244Ala uptake relative to WT
[10] = uptake ratio of OCT1 WT-overexpressing HEK293 cells over empty vector
[11] = uptake ratio of OCT1 Phe244Ala-overexpressing HEK293 cells over empty vector

In the case of `CN(C)CCc1c[nH]c2ccc(C[C@H]3COC(=O)N3)cc12` [Zolmitriptan], the Clint [1] is reported as 13.3 ± 17.5 ml × g Protein^−1 × min^−1, the “Maximum transport capacity (vmax), Phe244Ala compared to WT” value [1] is reported as “reduced transport capacity” and the Clint [2] is reported as 21.6 ± 26.4 ml × g Protein^−1 × min^−1.
For `CC(=O)OC(C)C[N+](C)(C)C` (stereo not drawn) [Methacholine, Acetyl-beta-methylcholine], the Clint [1] was 3.03 ± 8.29 ml × g Protein^−1 × min^−1, the “Km, Phe244Ala compared to WT” value [1] was “higher Km values” and the “Maximum transport capacity (vmax), Phe244Ala compared to WT” value [1] was “more similar maximum transport capacities”. For the same compound, the “Transport activity of Phe244Ala in % of WT activity” value ([3]; 2.5 μM substrate, 2 min, Phe244Ala uptake relative to WT) was roughly 10% and the Clint [2] was 14.1 ± 15.2 ml × g Protein^−1 × min^−1.
`NC(N)=Nc1nc(CSCCC(N)=NS(N)(=O)=O)cs1` [Famotidine] was tested, and the Clint [1] was 12.1 ± 19.8 ml × g Protein^−1 × min^−1, the “Km, Phe244Ala compared to WT” value [1] was “higher Km values” and the “Maximum transport capacity (vmax), Phe244Ala compared to WT” value [1] was “more similar maximum transport capacities”. For the same compound, the Clint [2] was 45.8 ± 45.7 ml × g Protein^−1 × min^−1.
With `Cc1ncc(C[n+]2csc(CCO)c2C)c(N)n1` [Thiamine] the Mean_transport_ratio_WT [4, 6] was 42.169, the Clint [1] was 2.70 ± 5.44 ml × g Protein^−1 × min^−1 and the “Maximum transport capacity (vmax), Phe244Ala compared to WT” value [1] was “reduced transport capacity”. For the same compound, the relative_Phe244Ala_uptake_in% [3, 7] was 21.749%, the Mean_transport_ratio_Phe244Ala [3, 8] was 9.954 and the Clint [2] was 7.51 ± 8.28 ml × g Protein^−1 × min^−1.
With `CC(C)[N+](C)(CCOC(=O)C1c2ccccc2Oc2ccccc21)C(C)C` [Propanthelin, Propantheline] the Clint [1] was 205 ± 124 ml × g Protein^−1 × min^−1 and the Clint [2] was 224 ± 251 ml × g Protein^−1 × min^−1.
For `CCN1CCCC1CNC(=O)c1cc(S(N)(=O)=O)ccc1OC` (stereo not shown) [Sulpiride], the vmax [1] was 418 ± 65 pmol × mg protein^−1 × min^−1, the Clint [1] was 4.01 ± 3.27 ml × g Protein^−1 × min^−1 and the vmax [2] was 237 ± 49.7 pmol × mg protein^−1 × min^−1. The Clint [2] was 2.65 ± 3.09 ml × g Protein^−1 × min^−1.
With `CC(C)(C)NCC(O)COc1cccc2c1CCC(=O)N2` (stereo not shown) [Carteolol] the Mean_transport_ratio_WT [4, 6] was 3.378, the Clint [1] was 7.82 ± 8.13 ml × g Protein^−1 × min^−1 and the “Fold increased uptake rate by Phe244Ala compared to WT” value ([3]; 2.5 μM substrate, 2 min) was 3.2 fold. For the same compound, the relative_Phe244Ala_uptake_in% [3, 9] was 315.540%, the Mean_transport_ratio_Phe244Ala [3, 8] was 8.502 and the Clint [2] was 1.01 ± 1.41 ml × g Protein^−1 × min^−1.
For `COc1cc(Cc2cnc(N)nc2N)cc(OC)c1OC` [Trimethoprim], the Mean_transport_ratio_WT [4, 6] was 3.204, the “Inhibition of the Phe244Ala mutant compared to the WT transporter (screening)” value [5] was “strongly reduced inhibition” and the relative_Phe244Ala_uptake_in% [3, 7] was 23.542%. It also gave a Mean_transport_ratio_Phe244Ala [3, 8] of 1.519.
In the case of `COc1cc2c(cc1OC)-c1cc3ccc(OC)c(OC)c3c[n+]1CC2` [Palmatin], the Mean_transport_ratio_WT [4, 6] is reported as 7.047, the relative_Phe244Ala_uptake_in% [3, 7] is reported as 65.326% and the Mean_transport_ratio_Phe244Ala [3, 8] is reported as 4.951.
With `CCC1(C2=NCCN2)Cc2ccccc2O1` (stereo not shown) [Efaroxan] the Mean_transport_ratio_WT [4, 6] was 1.81, the relative_Phe244Ala_uptake_in% [3, 9] was 45.757% and the Mean_transport_ratio_Phe244Ala [3, 8] was 1.371.
`CC(=O)Nc1ccc(OCC(O)CNC(C)C)cc1` (stereo not shown) [Practolol] gave a Mean_transport_ratio_WT [4, 6] of 2.092, a relative_Phe244Ala_uptake_in% [3, 7] of 83.607% and a Mean_transport_ratio_Phe244Ala [3, 8] of 1.913.
`C[N@+]1(CC2CC2)CC[C@]23c4c5ccc(O)c4O[C@H]2C(=O)CC[C@@]3(O)[C@H]1C5` [Methylnaltrexone] was tested, and the Mean_transport_ratio_WT [4, 10] was 47.714, the relative_Phe244Ala_uptake_in% [3, 7] was 139.178% and the Mean_transport_ratio_Phe244Ala [3, 11] was 66.016.
`C[N+]1(CCC(C(N)=O)(c2ccccc2)c2ccccc2)CCCCC1` [Fenpiverinium] gave a Mean_transport_ratio_WT [4, 10] of 38.408, a relative_Phe244Ala_uptake_in% [3, 7] of 131.946% and a Mean_transport_ratio_Phe244Ala [3, 11] of 50.359.
For `NCCc1ccc(O)cc1` [p-Tyramine], the Mean_transport_ratio_WT [4, 6] was 4.809, the relative_Phe244Ala_uptake_in% [3, 7] was 11.429% and the Mean_transport_ratio_Phe244Ala [3, 8] was 1.435.
In the case of `C=CCN1CCCC1CNC(=O)c1cc(S(N)(=O)=O)cc(OC)c1OC` (stereo not shown) [Veralipride], the Mean_transport_ratio_WT [4, 6] is reported as 1.907, the relative_Phe244Ala_uptake_in% [3, 7] is reported as 478.904% and the Mean_transport_ratio_Phe244Ala [3, 8] is reported as 5.345.
`CNC(=C[N+](=O)[O-])NCCSCc1csc(CN(C)C)n1` [Nizatidine] showed a Mean_transport_ratio_WT [4, 10] of 4.961, a relative_Phe244Ala_uptake_in% [3, 7] of 10.436% and a Mean_transport_ratio_Phe244Ala [3, 11] of 1.413.
In the case of `CC(CCc1ccc(O)cc1)NCCc1ccc(O)c(O)c1` (stereo not shown) [Dobutamine], the Mean_transport_ratio_WT [4, 6] is reported as 6.852, the Clint [1] is reported as 7.88 ± 6.38 ml × g Protein^−1 × min^−1 and the “Km, Phe244Ala compared to WT” value [1] is reported as “lower Km values”. For the same compound, the relative_Phe244Ala_uptake_in% [3, 9] was 249.567%, the Mean_transport_ratio_Phe244Ala [3, 8] was 15.606 and the Clint [2] was 3.03 ± 6.16 ml × g Protein^−1 × min^−1.
Compound `CC(CCc1ccc(O)cc1)NCC(O)c1ccc(O)cc1` (stereo not shown) [Ractopamine] has a Mean_transport_ratio_WT [4, 6] of 6.92, a relative_Phe244Ala_uptake_in% [3, 7] of 102.038% and a Mean_transport_ratio_Phe244Ala [3, 8] of 7.041.
For `Cc1cc(O)cc(C)c1OCC(C)N` (stereo not shown) [4-Hydroxy mexiletine], the Mean_transport_ratio_WT [4, 10] was 3.163, the relative_Phe244Ala_uptake_in% [3, 7] was 23.363% and the Mean_transport_ratio_Phe244Ala [3, 11] was 1.505.
Compound `CCC1(c2cccc(O)c2)CCCCN(C)C1` (stereo not shown) [Meptazinol] has a Mean_transport_ratio_WT [4] of 1.477, a Mean_transport_ratio_Phe244Ala [3] of 1.571 and a relative_Phe244Ala_uptake_in% [3] of 119.786%.
For `CCOC(=O)c1ccc(OC(=O)CCCCCNC(=N)N)cc1` [Gabexate], the Mean_transport_ratio_WT [4, 10] was 1.935, the relative_Phe244Ala_uptake_in% [3, 7] was 112.397% and the Mean_transport_ratio_Phe244Ala [3, 11] was 2.051.
With `CN(C)CCc1c[nH]c2ccc(CS(=O)(=O)N3CCCC3)cc12` [Almotriptan] the Mean_transport_ratio_WT [4, 6] was 3.882, the relative_Phe244Ala_uptake_in% [3, 9] was 113.777% and the Mean_transport_ratio_Phe244Ala [3, 8] was 4.279.
With `COc1cc2c(cc1OC)-c1cc3ccc4c(c3c[n+]1CC2)OCO4` [Epiberberine] the Mean_transport_ratio_WT [4, 6] was 22.185, the relative_Phe244Ala_uptake_in% [3, 9] was 84.587% and the Mean_transport_ratio_Phe244Ala [3, 8] was 18.92.
`C[n+]1ccc(-c2ccccc2)cc1` [MPP^+, 1-Methyl-4-phenylpyridinium] showed a Mean_transport_ratio_WT [4, 10] of 45.919, a relative_Phe244Ala_uptake_in% [3, 7] of 63.172% and a Mean_transport_ratio_Phe244Ala [3, 11] of 29.377.
`CC[C@@H](CO)NCCN[C@@H](CC)CO` [(S,S)-Ethambutol] gave a Mean_transport_ratio_WT [4] of 21.59, a Mean_transport_ratio_Phe244Ala [3] of 11.185 and a relative_Phe244Ala_uptake_in% [3] of 49.465%.
With `CCCC[N+]1(C)[C@@H]2C[C@@H](OC(=O)[C@H](CO)c3ccccc3)C[C@H]1[C@@H]1O[C@@H]12` (stereo partly shown) [Butylscopolamine] the Mean_transport_ratio_WT [4, 6] was 24.775, the relative_Phe244Ala_uptake_in% [3, 9] was 125.561% and the Mean_transport_ratio_Phe244Ala [3, 8] was 30.852.
For `CC[C@@H](CO)NCCN[C@@H](CC)CO` [(R,R)-Ethambutol], the Mean_transport_ratio_WT [4] was 26.39, the Mean_transport_ratio_Phe244Ala [3] was 16.298 and the relative_Phe244Ala_uptake_in% [3] was 60.253%.
`O=C(O[C@H]1C[C@H]2CC[C@@H](C1)[N+]21CCCC1)C(O)(c1ccccc1)c1ccccc1` [Trospium] showed a Mean_transport_ratio_WT [4, 6] of 27.542, a relative_Phe244Ala_uptake_in% [3, 7] of 106.940% and a Mean_transport_ratio_Phe244Ala [3, 8] of 29.384.
With `NC(=Nc1ccccc1)Nc1ccccc1` [Diphenylguanidine] the Mean_transport_ratio_WT [4] was 2.037, the Mean_transport_ratio_Phe244Ala [3] was 1.952 and the relative_Phe244Ala_uptake_in% [3] was 91.817%.
`CNCCc1ccc(O)cc1` [N-Methyl-p-tyramine] was tested, and the Mean_transport_ratio_WT [4, 10] was 6.673, the relative_Phe244Ala_uptake_in% [3, 7] was 12.133% and the Mean_transport_ratio_Phe244Ala [3, 11] was 1.688.
With `C[N+]1(C)CCCC(OC(=O)C(O)(c2ccccc2)c2ccccc2)C1` (stereo not shown) [Mepenzolate] the Mean_transport_ratio_WT [4, 10] was 28.031 and 34.795, the relative_Phe244Ala_uptake_in% [3, 7] was 130.959% and 121.132% and the Mean_transport_ratio_Phe244Ala [3, 11] was 36.4 and 41.936.
